Tests used:
[1] = target: CDK7 (Homo sapiens, UniProt P50613); assay: NanoBRET live-cell target engagement, NanoLuc-CDK7 in HEK-293; assay type: binding; details: CDK7, 10µM
[2] = test system: all 21 human CDKs; assay: Live-cell selectivity profile across all 21 CDK/cyclin complexes in HEK-293; assay type: binding; details: live cells
[3] = target: CDK3/Cyclin E1 (Homo sapiens, UniProt Q00526); assay: NanoBRET live-cell target engagement, CDK3-NanoLuc/Cyclin E1 in HEK-293; assay type: binding; details: CDK3/E1, 10µM
Chain of CDK3/Cyclin E1 (Q00526 whole entry): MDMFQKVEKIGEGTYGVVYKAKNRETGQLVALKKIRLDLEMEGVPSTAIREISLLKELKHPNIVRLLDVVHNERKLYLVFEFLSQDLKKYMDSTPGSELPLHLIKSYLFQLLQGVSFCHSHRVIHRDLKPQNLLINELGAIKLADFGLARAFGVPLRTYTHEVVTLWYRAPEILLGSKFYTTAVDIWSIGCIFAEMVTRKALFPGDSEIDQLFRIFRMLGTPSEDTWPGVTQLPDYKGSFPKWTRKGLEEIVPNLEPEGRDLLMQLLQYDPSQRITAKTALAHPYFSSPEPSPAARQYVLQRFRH
Chain of CDK3/Cyclin E1 (P24864 whole entry partner): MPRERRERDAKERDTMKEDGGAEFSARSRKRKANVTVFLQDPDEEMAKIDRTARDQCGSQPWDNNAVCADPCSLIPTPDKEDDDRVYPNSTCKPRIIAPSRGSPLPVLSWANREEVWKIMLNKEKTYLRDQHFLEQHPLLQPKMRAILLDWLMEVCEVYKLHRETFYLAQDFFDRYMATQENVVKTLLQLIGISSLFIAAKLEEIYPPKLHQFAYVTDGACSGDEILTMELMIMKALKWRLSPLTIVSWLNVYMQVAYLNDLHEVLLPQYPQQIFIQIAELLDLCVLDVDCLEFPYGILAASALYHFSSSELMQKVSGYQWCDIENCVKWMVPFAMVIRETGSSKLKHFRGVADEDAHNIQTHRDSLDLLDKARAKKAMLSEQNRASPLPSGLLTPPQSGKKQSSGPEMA

[4] = target: CDK6/Cyclin D1 (Homo sapiens, UniProt Q00534); assay: NanoBRET live-cell target engagement, NanoLuc-CDK6/Cyclin D1 in HEK-293; assay type: binding; details: CDK6/D1, 10µM
Chain of CDK6/Cyclin D1 (Q00534 whole entry): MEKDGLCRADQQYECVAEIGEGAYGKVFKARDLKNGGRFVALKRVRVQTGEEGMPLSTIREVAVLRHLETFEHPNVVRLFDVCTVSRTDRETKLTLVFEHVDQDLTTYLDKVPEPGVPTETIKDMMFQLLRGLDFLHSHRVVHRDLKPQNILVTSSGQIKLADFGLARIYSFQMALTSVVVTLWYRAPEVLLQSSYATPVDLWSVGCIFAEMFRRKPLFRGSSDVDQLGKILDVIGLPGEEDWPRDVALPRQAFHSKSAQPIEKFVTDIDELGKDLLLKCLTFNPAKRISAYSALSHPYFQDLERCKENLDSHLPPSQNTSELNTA
Chain of CDK6/Cyclin D1 (P24385 whole entry partner): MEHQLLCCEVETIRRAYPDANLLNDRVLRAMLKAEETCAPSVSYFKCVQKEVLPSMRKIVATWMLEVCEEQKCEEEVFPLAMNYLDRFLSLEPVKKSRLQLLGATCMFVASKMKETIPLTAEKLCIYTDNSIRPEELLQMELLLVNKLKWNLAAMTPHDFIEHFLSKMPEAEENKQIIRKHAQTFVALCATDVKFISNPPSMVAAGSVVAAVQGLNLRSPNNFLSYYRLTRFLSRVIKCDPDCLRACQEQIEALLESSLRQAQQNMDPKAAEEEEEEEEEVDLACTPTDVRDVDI

[5] = target: CDK12/Cyclin K (Homo sapiens, UniProt Q9NYV4); assay: NanoBRET live-cell target engagement, CDK12-NanoLuc/Cyclin K in HEK-293; assay type: binding; details: CDK12/K, 10µM
[6] = target: CDK4/Cyclin D1 (Homo sapiens, UniProt P11802); assay: NanoBRET live-cell target engagement, NanoLuc-CDK4/Cyclin D1 in HEK-293; assay type: binding; details: CDK4/D1, 10µM
Chain of CDK4/Cyclin D1 (P11802 whole entry): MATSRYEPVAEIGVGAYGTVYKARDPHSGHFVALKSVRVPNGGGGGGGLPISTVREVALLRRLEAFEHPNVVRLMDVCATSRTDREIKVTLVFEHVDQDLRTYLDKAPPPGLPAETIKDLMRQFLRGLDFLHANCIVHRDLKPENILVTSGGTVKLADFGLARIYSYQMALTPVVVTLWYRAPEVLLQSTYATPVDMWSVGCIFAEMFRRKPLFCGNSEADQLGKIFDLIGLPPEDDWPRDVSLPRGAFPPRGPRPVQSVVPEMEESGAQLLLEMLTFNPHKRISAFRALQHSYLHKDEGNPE
Chain of CDK4/Cyclin D1 (P24385 whole entry partner): as the sequence (P24385 whole entry partner) above

[7] = target: CDK5/CDK5R1 (Homo sapiens, UniProt Q00535); assay: NanoBRET live-cell target engagement, CDK5-NanoLuc/CDK5R1 in HEK-293; assay type: binding; details: CDK5/CDK5R1, 10µM
[8] = target: CDK8/Cyclin C (Homo sapiens, UniProt P49336); assay: NanoBRET live-cell target engagement, NanoLuc-CDK8/Cyclin C in HEK-293; assay type: binding; details: CDK8/C, 10µM
[9] = target: CDK11B/Cyclin L2 (Homo sapiens, UniProt P21127); assay: NanoBRET live-cell target engagement, CDK11B-NanoLuc/Cyclin L2 in HEK-293; assay type: binding; details: CDK11b/L2, 10µM
[10] = target: CDK15/Cyclin Y (Homo sapiens, UniProt Q96Q40); assay: NanoBRET live-cell target engagement, NanoLuc-CDK15/Cyclin Y in HEK-293; assay type: binding; details: CDK15/Y, 10µM
[11] = target: CDK18/Cyclin Y (Homo sapiens, UniProt Q07002); assay: NanoBRET live-cell target engagement, CDK18-NanoLuc/Cyclin Y in HEK-293; assay type: binding; details: CDK18/Y, 10µM
[12] = target: CDK14/Cyclin Y (Homo sapiens, UniProt O94921); assay: NanoBRET live-cell target engagement, CDK14-NanoLuc/Cyclin Y in HEK-293; assay type: binding; details: CDK14/Y, 10µM
[13] = target: CDK13/Cyclin K (Homo sapiens, UniProt Q14004); assay: NanoBRET live-cell target engagement, CDK13-NanoLuc/Cyclin K in HEK-293; assay type: binding; details: CDK13/K, 10µM
Chain of CDK13/Cyclin K (O75909 whole entry): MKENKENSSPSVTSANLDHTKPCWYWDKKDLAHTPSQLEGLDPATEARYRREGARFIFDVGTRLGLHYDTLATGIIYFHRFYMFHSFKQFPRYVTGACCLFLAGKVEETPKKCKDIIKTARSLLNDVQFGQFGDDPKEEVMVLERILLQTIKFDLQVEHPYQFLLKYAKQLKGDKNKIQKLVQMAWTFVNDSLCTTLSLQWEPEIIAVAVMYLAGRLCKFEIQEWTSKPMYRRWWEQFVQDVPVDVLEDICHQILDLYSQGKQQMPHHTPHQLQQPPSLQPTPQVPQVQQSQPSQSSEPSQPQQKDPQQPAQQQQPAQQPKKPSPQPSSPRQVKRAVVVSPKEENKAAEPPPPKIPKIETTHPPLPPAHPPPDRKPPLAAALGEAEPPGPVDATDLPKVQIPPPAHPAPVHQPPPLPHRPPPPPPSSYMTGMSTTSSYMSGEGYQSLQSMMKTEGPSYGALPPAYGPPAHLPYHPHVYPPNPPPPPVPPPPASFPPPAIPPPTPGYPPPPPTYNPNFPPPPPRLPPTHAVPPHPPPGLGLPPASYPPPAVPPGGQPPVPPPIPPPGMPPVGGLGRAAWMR
Chain of CDK13/Cyclin K (Q14004 other isoform, or with tags, fused parts or gaps): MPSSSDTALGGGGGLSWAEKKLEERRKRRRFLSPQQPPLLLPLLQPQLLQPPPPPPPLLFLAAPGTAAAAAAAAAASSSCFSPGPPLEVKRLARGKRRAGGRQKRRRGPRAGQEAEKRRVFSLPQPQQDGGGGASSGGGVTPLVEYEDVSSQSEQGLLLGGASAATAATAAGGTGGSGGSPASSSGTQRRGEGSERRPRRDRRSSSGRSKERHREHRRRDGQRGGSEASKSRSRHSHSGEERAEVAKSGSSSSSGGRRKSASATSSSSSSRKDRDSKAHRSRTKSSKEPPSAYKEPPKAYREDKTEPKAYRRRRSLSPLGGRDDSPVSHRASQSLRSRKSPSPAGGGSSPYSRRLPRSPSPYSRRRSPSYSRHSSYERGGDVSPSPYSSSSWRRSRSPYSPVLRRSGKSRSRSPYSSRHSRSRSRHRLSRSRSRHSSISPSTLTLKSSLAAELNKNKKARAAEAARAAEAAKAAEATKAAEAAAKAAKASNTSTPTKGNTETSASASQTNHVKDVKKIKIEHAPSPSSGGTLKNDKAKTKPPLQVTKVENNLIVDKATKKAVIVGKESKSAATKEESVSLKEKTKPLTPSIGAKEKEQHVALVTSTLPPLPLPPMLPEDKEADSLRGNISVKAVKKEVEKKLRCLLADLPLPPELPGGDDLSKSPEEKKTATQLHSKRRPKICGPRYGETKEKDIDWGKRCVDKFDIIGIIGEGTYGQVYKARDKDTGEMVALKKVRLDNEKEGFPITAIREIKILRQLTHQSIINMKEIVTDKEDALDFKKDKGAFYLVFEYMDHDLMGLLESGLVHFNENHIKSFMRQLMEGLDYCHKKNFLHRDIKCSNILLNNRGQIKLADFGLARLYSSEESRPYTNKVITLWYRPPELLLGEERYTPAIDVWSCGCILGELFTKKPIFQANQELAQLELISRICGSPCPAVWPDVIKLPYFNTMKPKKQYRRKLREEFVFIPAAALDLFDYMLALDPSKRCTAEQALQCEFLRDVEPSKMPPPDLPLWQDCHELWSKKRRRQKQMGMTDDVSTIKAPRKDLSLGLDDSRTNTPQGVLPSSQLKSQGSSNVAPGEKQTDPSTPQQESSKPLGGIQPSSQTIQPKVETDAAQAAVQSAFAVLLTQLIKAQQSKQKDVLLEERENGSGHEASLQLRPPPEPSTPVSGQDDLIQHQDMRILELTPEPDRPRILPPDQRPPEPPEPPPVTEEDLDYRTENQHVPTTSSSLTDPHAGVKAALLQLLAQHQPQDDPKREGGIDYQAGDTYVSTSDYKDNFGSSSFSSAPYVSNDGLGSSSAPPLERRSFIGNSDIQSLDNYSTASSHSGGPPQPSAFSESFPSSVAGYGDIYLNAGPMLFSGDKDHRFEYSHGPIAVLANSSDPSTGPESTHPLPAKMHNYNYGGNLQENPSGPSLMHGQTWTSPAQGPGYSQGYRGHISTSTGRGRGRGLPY

[14] = target: CDK20/Cyclin H (Homo sapiens, UniProt Q8IZL9); assay: NanoBRET live-cell target engagement, NanoLuc-CDK20/Cyclin H in HEK-293; assay type: binding; details: CDK20/H; 10µM
[15] = target: CDK2/Cyclin E1 (Homo sapiens, UniProt P24941); assay: NanoBRET live-cell target engagement, CDK2-NanoLuc/Cyclin E1 in HEK-293; assay type: binding; details: CDK2/E1, 10µM
[16] = target: T1, CDK11A/Cyclin L2 (Homo sapiens, UniProt Q9UQ88); assay: NanoBRET live-cell target engagement, CDK11A-NanoLuc/Cyclin L2 in HEK-293; assay type: binding; details: CDK11a/L2, 10µM
T1 sequence (Q9UQ88 1-783): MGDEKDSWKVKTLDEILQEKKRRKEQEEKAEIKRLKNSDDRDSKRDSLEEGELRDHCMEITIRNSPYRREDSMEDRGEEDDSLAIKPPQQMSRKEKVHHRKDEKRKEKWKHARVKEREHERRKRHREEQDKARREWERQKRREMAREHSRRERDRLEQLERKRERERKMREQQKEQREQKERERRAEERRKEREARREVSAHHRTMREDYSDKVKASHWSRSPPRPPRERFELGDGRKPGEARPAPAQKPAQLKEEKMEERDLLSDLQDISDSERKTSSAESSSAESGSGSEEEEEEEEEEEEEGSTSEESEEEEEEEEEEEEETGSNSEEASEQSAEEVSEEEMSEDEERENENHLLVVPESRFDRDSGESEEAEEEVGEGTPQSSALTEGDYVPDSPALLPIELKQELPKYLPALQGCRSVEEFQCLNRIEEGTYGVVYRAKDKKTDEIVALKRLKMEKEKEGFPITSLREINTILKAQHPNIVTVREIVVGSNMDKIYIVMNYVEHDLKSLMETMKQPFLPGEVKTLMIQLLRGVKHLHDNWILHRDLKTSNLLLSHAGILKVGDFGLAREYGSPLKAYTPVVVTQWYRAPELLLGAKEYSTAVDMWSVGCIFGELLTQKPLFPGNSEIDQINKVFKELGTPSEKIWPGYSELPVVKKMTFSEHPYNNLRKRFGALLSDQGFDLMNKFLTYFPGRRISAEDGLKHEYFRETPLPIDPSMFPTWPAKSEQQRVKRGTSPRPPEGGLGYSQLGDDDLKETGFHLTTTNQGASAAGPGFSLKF

[17] = target: CDK1/Cyclin E1 (Homo sapiens, UniProt P06493); assay: NanoBRET live-cell target engagement, CDK1-NanoLuc/Cyclin E1 in HEK-293; assay type: binding; details: CDK1/E1, 10µM
Chain of CDK1/Cyclin E1 (P06493 whole entry): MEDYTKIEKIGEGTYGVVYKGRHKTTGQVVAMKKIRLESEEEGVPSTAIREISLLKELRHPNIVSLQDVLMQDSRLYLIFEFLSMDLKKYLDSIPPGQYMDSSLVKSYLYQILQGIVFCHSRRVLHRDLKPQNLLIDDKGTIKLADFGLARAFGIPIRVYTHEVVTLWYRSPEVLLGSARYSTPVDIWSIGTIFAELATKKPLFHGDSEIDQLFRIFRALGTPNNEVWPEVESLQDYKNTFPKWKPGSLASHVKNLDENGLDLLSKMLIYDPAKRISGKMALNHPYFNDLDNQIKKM
Chain of CDK1/Cyclin E1 (P24864 whole entry partner): as the sequence (P24864 whole entry partner) above

[18] = target: CDK16/Cyclin Y (Homo sapiens, UniProt Q00536); assay: NanoBRET live-cell target engagement, CDK16-NanoLuc/Cyclin Y in HEK-293; assay type: binding; details: CDK16/Y; 10µM
[19] = target: CDK19/Cyclin C (Homo sapiens, UniProt Q9BWU1); assay: NanoBRET live-cell target engagement, NanoLuc-CDK19/Cyclin C in HEK-293; details: CDK19/C, 10µM
[20] = target: CDK9/Cyclin K (Homo sapiens, UniProt P50750); assay: NanoBRET live-cell target engagement, NanoLuc-CDK9/Cyclin K in HEK-293; assay type: binding; details: CDK9/K, 10µM
Chain of CDK9/Cyclin K (P50750 whole entry): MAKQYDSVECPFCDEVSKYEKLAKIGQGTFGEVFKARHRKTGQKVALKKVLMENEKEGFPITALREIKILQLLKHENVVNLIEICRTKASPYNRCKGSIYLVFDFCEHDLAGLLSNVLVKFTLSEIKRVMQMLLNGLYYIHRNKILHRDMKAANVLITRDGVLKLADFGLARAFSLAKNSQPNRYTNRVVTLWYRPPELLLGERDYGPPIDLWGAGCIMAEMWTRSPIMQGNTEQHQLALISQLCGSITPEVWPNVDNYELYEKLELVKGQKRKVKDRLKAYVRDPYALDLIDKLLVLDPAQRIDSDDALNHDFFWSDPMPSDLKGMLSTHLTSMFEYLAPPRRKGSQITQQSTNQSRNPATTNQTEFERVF
Chain of CDK9/Cyclin K (O75909 whole entry partner): as the sequence (O75909 whole entry) above

[21] = target: CDK17/Cyclin Y (Homo sapiens, UniProt Q00537); assay: NanoBRET live-cell target engagement, CDK17-NanoLuc/Cyclin Y in HEK-293; assay type: binding; details: CDK17/Y, 10µM
[22] = target: CDK10/Cyclin L2 (Homo sapiens, UniProt Q15131); assay: NanoBRET live-cell target engagement, CDK10-NanoLuc/Cyclin L2 in HEK-293; details: CDK10/L2, 10µM
Chain of CDK10/Cyclin L2 (Q15131 whole entry): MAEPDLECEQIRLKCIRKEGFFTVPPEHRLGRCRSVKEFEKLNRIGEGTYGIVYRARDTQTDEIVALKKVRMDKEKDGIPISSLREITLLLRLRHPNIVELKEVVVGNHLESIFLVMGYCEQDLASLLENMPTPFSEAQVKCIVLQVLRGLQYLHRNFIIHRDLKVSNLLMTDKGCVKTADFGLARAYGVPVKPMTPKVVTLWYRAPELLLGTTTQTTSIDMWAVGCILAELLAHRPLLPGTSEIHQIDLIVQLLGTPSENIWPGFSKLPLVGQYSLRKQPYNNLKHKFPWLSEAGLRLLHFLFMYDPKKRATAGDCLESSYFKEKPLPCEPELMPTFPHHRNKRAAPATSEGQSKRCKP

Inhibition at 10µM (%) Replicate 1 [1]: 9.8%
Inhibition at 10µM (%) Replicate 2 [1]: 16.0%
Inhibition at 10µM (%) Average ([1]; average of replicates): 12.9%
Inhibition at 10µM (%) Replicate 1 [3]: 4.4%
Inhibition at 10µM (%) Replicate 2 [3]: 3.4%
Inhibition at 10µM (%) Average ([3]; average of replicates): 3.9%
Inhibition at 10µM (%) Replicate 1 [4]: 5.5%
Inhibition at 10µM (%) Replicate 2 [4]: 5.4%
Inhibition at 10µM (%) Average ([4]; average of replicates): 5.5%
Inhibition at 10µM (%) Replicate 1 [5]: 6.2%
Inhibition at 10µM (%) Replicate 2 [5]: -2.0%
Inhibition at 10µM (%) Average ([5]; average of replicates): 2.1%
Inhibition at 10µM (%) Replicate 1 [6]: 13.2%
Inhibition at 10µM (%) Replicate 2 [6]: 14.4%
Inhibition at 10µM (%) Average ([6]; average of replicates): 13.8%
Inhibition at 10µM (%) Replicate 1 [7]: 7.9%
Inhibition at 10µM (%) Replicate 2 [7]: -3.3%
Inhibition at 10µM (%) Average ([7]; average of replicates): 2.3%
Inhibition at 10µM (%) Replicate 1 [8]: 6.1%
Inhibition at 10µM (%) Replicate 2 [8]: -10.6%
Inhibition at 10µM (%) Average ([8]; average of replicates): -2.2%
Inhibition at 10µM (%) Replicate 1 [9]: 8.9%
Inhibition at 10µM (%) Replicate 2 [9]: -3.2%
Inhibition at 10µM (%) Average ([9]; average of replicates): 2.8%
Inhibition at 10µM (%) Replicate 1 [10]: 8.0%
Inhibition at 10µM (%) Replicate 2 [10]: 6.5%
Inhibition at 10µM (%) Average ([10]; average of replicates): 7.2%
Inhibition at 10µM (%) Replicate 1 [11]: 16.5%
Inhibition at 10µM (%) Replicate 2 [11]: 10.0%
Inhibition at 10µM (%) Average ([11]; average of replicates): 13.2%
Inhibition at 10µM (%) Replicate 1 [12]: -4.4%
Inhibition at 10µM (%) Replicate 2 [12]: -10.4%
Inhibition at 10µM (%) Average ([12]; average of replicates): -7.4%
Inhibition at 10µM (%) Replicate 1 [13]: 3.0%
Inhibition at 10µM (%) Replicate 2 [13]: -9.6%
Inhibition at 10µM (%) Average ([13]; average of replicates): -3.3%
Inhibition at 10µM (%) Replicate 1 [14]: 14.8%
Inhibition at 10µM (%) Replicate 2 [14]: 26.9%
Inhibition at 10µM (%) Replicate 1 [15]: -7.9%
Inhibition at 10µM (%) Replicate 2 [15]: 7.7%
Inhibition at 10µM (%) Average ([15]; average of replicates): -0.109%
Inhibition at 10µM (%) Replicate 1 [16]: -5.6%
Inhibition at 10µM (%) Replicate 2 [16]: 5.6%
Inhibition at 10µM (%) Average ([16]; average of replicates): -0.00201%
Inhibition at 10µM (%) Replicate 1 [17]: 19.1%
Inhibition at 10µM (%) Replicate 2 [17]: 12.1%
Inhibition at 10µM (%) Average ([17]; average of replicates): 15.6%
Inhibition at 10µM (%) Replicate 1 [18]: 4.2%
Inhibition at 10µM (%) Replicate 2 [18]: -9.2%
Inhibition at 10µM (%) Replicate 1 [19]: 12.8%
Inhibition at 10µM (%) Replicate 2 [19]: -7.7%
Inhibition at 10µM (%) Average ([19]; average of replicates): 2.6%
Inhibition at 10µM (%) Replicate 1 [20]: 12.5%
Inhibition at 10µM (%) Replicate 2 [20]: 29.1%
Inhibition at 10µM (%) Average ([20]; average of replicates): 20.8%
Inhibition at 10µM (%) Replicate 1 [21]: 0.247%
Inhibition at 10µM (%) Replicate 2 [21]: 1.8%
Inhibition at 10µM (%) Average ([21]; average of replicates): 1.0%
Inhibition at 10µM (%) Replicate 1 [22]: 1.9%
Inhibition at 10µM (%) Replicate 2 [22]: 8.8%
Inhibition at 10µM (%) Average ([22]; average of replicates): 5.4%
Structure (SMILES): O=C(Nc1c[nH]nc1-c1ccccn1)c1nn(C2CCNCC2)cc1Cl [BDP5290]
engagement of CDKs at concentrations up to 10μM [2]: only weakly engaged

From article PMC7265341, “Quantifying CDK inhibitor selectivity in live cells” (Nature Communications, 2020)
